What was measured:
Type in all cases: cell-based, human
[1] = test system: immortalized keratinocytes (N-TERT); experiment: Pyroptosis / apoptosis in N-TERT keratinocytes (morphology, ASC-GFP, PI, Annexin V, immunoblot); settings: for morphological hallmarks of inflammasome activation and pyroptotic cell death: membrane ballooning, ASC-GFP specks, PI uptake
Source text: (§1) The following antibodies were used in this study: cleaved PARP1 (Abclonal, #WH162766), Cleaved CASP3 (Abclonal, #WH154646), Full length GSDMD-FL (Abcam, #ab210070), IL1β p17 specific (CST, #83186S), CARD8 (Abcam, CARD8-NT: ab19485, CARD8-CT: ab241186), DPP9 (Abcam, ab226334), c-Myc (Santa Cruz Biotechnology, #sc-40), HA tag (Santa Cruz Biotechnology, #sc-805), GAPDH (Santa Cruz Biotechnology, #sc-47724), ASC (Adipogen, #AL-177), CASP1 (Santa Cruz Biotechnology, #sc-622), 11_1B (R&D systems, #AF-201), FLAG (SigmaAldrich, #F3165), NLRP1 (R&D systems, #AF6788), IL18 (Abcam ab207324), cleaved GSDMD-NT (Asp275) (Cell Signaling Technology, #36425), RPL31 (Abclonal, #WH162766), CASP7 (Abcam, ab255818), CASP8 (Abcam, ab32397), cleaved CASP3 (Cell Signaling Technology, #9664). All horseradish peroxidase (HRP)— conjugated secondary antibodies were purchased from Jackson Immunoresearch (goat anti-mouse IgG: 115-035-166; goat anti-rabbit IgG: 111-035-144; and donkey anti-goat IgG: 705-005-147). Blue-Native PAGE was carried out using the Native-PAGE system (ThermoFisher) with 10-20 μg of total lysate. For SDS-PAGE using whole cell lysates, cells were resuspended in tris-buffered saline 1% NP-40 with protease inhibitors (Thermo Scientific, #78430). Protein concentration was determined using the Bradford assay (Thermo Scientific, #23200) and […] of protein loaded, a part from cleaved GSDMD-NT visualisation where […] of protein was used. All primary antibodies were used at 250 ng/ml. Visualisation of ASC oligomerization was previously described (Robinson et al., 2020). For analysis of IL1β and IL-18 cleavage in the media by immunoblotting, samples were concentrated using filtered centrifugation (Merck, Amicon Ultra, #UFC5003BIK). Protein samples were run using immunoblotting, and then visualized using a ChemiDoc Imaging system (Bio-Rad). PhosTag SDS-PAGE was carried out using homemade 10% SDS-PAGE gel, with addition of Phos-tag Acrylamide (Wako Chemicals, AAL-107) to a final concentration of 30 μM and manganese chloride(II) (Sigma-Aldrich, #63535) to 60 μM.
N-TERT-ASC-GFP cells were seeded at a cell density of 3000 cells/well of a 96 black well plate (PerkinElmer, CellCarrier-96 Ultra, #6055300). The next morning cells were treated with chemicals for 6 h or treated in the evening for 24 h before staining. 1 hour before observing the cells on the microscope the cells were stained with 1 μg/ml dilution of propidium iodide (PI, Abcam #ab14083), 10 ng/ml dilution of Hoechst 33342 (Life Technologies, #H21492) or stained with Annexin V Alexa Flour 647 (Life technologies, #A23204) according to the manufacturer's protocol. Stained cells were then imaged on a high content screening microscope (Perkin Elmer Operetta CLS imaging system). Images were then stored and analyzed using the Harmony software (Version 6). Fluorescent and brightfield images acquired on the Operetta high content screening microscope were further analyzed using a scoring system to categorize the percentages of live, apoptotic and pyroptotic cells. For 3 fields of view per treatment the number of live cells per field was counted from the merge of the brightfield and ASC-GFP channels. Only cells which contained ASC-GFP throughout the cytoplasm and nucleus were classed as “live”. The number of pyroptotic cells was calculated using the merge of the brightfield and ASC-GFP channels. Only the cells with GFP specks were classed as “pyroptotic”. The number of apoptotic cells was calculated using the merge of the brightfield, ASC-GFP and Annexin V channels. Cells that were stained positive for Annexin V but without a GFP speck were classified as “apoptotic”. Images of ASC-GFP specks were acquired in 3 random fields in 4′,6-diaminidino-2-phenylindole (DAPI, 358 nm/461) and GFP (469 nm/525 nm) channels using the EVOS microscope (FL Auto M5000, #AM F5000) according to the manufacturer's protocol. […]

[2] = test system: NLRP1^DR; experiment: NLRP1 PYD-DR1 / NLRP1^DR phosphorylation (GFP fusion, immunoblot, PhosTag SDS-PAGE) in N-TERT cells
Source text: as §1
Cells were directly harvested using Laemmli buffer, lysed with an ultrasonicator, and loaded into the Phos-tag gel to run. Once the run was completed, the polyacrylamide gel was washed in transfer buffer with 10 mM EDTA twice, subsequently washed without EDTA twice, blotted onto 0.45 μm PVDF membranes (Bio-rad), blocked with 3% milk, and incubated with primary and corresponding secondary antibodies.

[3] = test system: 293T-ASC-GFP-NLRP1; settings: for ASC-GFP speck formation, screen of cytotoxic chemicals: ANS 1 μM, LTM 1 μg/ml, STS 1 μM
[4] = test system: N-TERT cells; experiment: Secreted IL1β / inflammasome activation in N-TERT cells
Experimental: To measure secreted cytokine and chemokine levels a human IL1β enzyme linked immunosorbent assay (ELISA) kit (BD, #557953), human IL-18 ELISA kit (MBL, #7620) or an Immune Monitoring 65-Plex Human ProcartaPlex Panel (EPX650-10065-901) were used according to manufacturer's protocols. Further analysis of Luminex or ELISA profiling of samples was performed using heatmap and PCA analysis on Clustervis (biitdotcsdotutdotee/clustvis/) [Somani et al., Proceeding of SSIC (2019)].
as §1

[5] = test system: NLRP1-NT; experiment: NLRP1 cleavage / NLRP1-NT level by immunoblot
Source text: as §1

CC1=C[C@H]2O[C@@H]3[C@H](O)C[C@](C)([C@@]2(CO)[C@H](O)C1=O)[C@]31CO1 [DON, deoxynivalenol]
morphological hallmarks of inflammasome activation and pyroptotic cell death [1]: caused prominent inflammasome activation and pyroptosis | NLRP1^DR hyperphosphorylation ([2]; NLRP1DR-GFP in N-TERT cells, PhosTag SDS-PAGE): also led to NLRP1^DR hyperphosphorylation | band shift (phosphorylation) of PYD-DR1-GFP ([2]; NLRP1 KO N-TERT cells expressing GFP-tagged PYD-DR1): band shift in PYD-DR1-GFP

C/C(=C\[C@H](C)C(=O)C[C@H](O)CC1CC(=O)NC(=O)C1)[C@@H]1OC(=O)/C=C/CC/C=C/C=C\[C@@H]1C [LTM, Lactimidomycin]
mode of cell death (apoptosis / pyroptosis) ([1]; Annexin V staining and PI inclusion, immunoblot markers): caused both apoptosis and pyroptosis | morphological hallmarks of inflammasome activation and pyroptotic cell death [1]: rapidly induced the morphological hallmarks of inflammasome activation and pyroptotic cell death | fraction of pyroptotic cells ([1]; single cell level, compared with VbP): comparable to that induced by VbP | ASC-GFP speck formation, screen of cytotoxic chemicals [3]: identified two hits

Cc1cn(-c2cc(NC(=O)c3ccc(C)c(Nc4nccc(-c5cccnc5)n4)c3)cc(C(F)(F)F)c2)cn1 [Nilotinib, 4-methyl-N-[3-(4-methylimidazol-1-yl)-5-(trifluoromethyl)phenyl]-3-[(4-pyridin-3-ylpyrimidin-2-yl)amino]benzamide]
effect on VbP-triggered pyroptosis [4]: had no discernible effect on VbP-triggered pyroptosis | effect on ANS- and DT-dependent inflammasome activation (ASC oligomerization, IL1β secretion) ([4]; wild-type N-TERT cells): abrogated all measures of ANS- and DT-dependent inflammasome activation | effect on ANS-dependent ASC-GFP speck formation ([3]; Nilotinib 0.1 μM): abrogated all measures of ANS- and DT-dependent inflammasome activation | NLRP1 PYD-DR1 phosphorylation under inhibitor [2]: loss of NLRP1 PYD-DR1 phosphorylation

CN[C@@H]1C[C@H]2O[C@@](C)([C@@H]1OC)n1c3ccccc3c3c4c(c5c6ccccc6n2c5c31)C(=O)NC4 [STS, Staurosporine]
ASC-GFP speck formation, screen of cytotoxic chemicals [3]: failed to induce ASC-GFP specks

CCCn1/c(=N/C(=O)c2cccc(C(N)=O)c2)[nH]c2ccccc21 [TAKinib]
effect on ANS-induced IL1β secretion ([4]; selective TAK1 inhibitor): does not have an effect on ANS-induced IL1β secretion

CN(CC[C@H](N)CC(=O)N[C@H]1C=C[C@H](n2ccc(N)nc2=O)O[C@@H]1C(=O)O)C(=N)N [blasticidin, Blasticidin]
morphological hallmarks of inflammasome activation and pyroptotic cell death [1]: none of the inhibitors that block the ribosome at the pre-elongation stages, including harringtonin, blasticidin and G418 caused any pyroptosis

CC(C)C[C@H](NC(=O)[C@H](Cc1ccccc1)NC(=O)c1cnccn1)B(O)O [bortezomib, [(1R)-3-methyl-1-[[(2S)-3-phenyl-2-(pyrazine-2-carbonylamino)propanoyl]amino]butyl]boronic acid]
effect on ribotoxin-triggered NLRP1-NT destabilization [5]: could be blocked | effect on ANS- and TNFα+DT-triggered NLRP1 activation ([4]; N-TERTs, BTZ 0.5 μM, MLN4924 0.25 μM): abrogated ANS- and TNFα+DT-triggered NLRP1 activation | effect on ANS- and TNFα+DT-triggered NLRP1 activation ([3]; 293T-NLRP1-ASC-GFP reporter cells, BTZ 0.5 μM, MLN4924 0.25 μM): abrogated ANS- and TNFα+DT-triggered NLRP1 activation

CC[C@H]1CN2CCc3cc(OC)c(OC)cc3[C@@H]2C[C@@H]1C[C@H]1NCCc2cc(OC)c(OC)cc21 [emetine]
effect on ANS-induced IL1β secretion ([4]; 150 μM emetine): completely abrogated

COC(=O)C[C@](O)(CCC(C)(C)O)C(=O)O[C@@H]1C(OC)=C[C@]23CCCN2CCc2cc4c(cc2[C@H]13)OCO4 [harringtonin, Harringtonine]
morphological hallmarks of inflammasome activation and pyroptotic cell death [1]: none of the inhibitors that block the ribosome at the pre-elongation stages, including harringtonin, blasticidin and G418 caused any pyroptosis

— patent publication US20240148728A1, “NOVEL METHOD TO BLOCK IN[…] DEATH AND IL-1BETA SECRETION CAUSED BY […] UV I[…] GENETIC AND CHEMICAL INHIBITORS OF ZAKA AND THE NLRP1 INFLAMMASOME” (priority 2021, published 2024)
